In one test the target is human activated kallikrein enzyme (Homo sapiens, UniProt P03952). The test is described as follows: Inhibition of human activated plasma kallikrein, fluorogenic PFR-AMC substrate, 500 pM enzyme format. Format: biochemical. As to conditions: 500 pM activated kallikrein; 300 μM PFR-AMC; 30 min preincubation; 10 min room temperature; pH 7.5; read-out: Primary Dose Response Assay: Average EC50. In a few lines:
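500 pM activated kallikrein preincubated 30 min at room temperature with inhibitors in pH 7.5 Tris/EDTA/NaCl buffer with PEG-400 and Triton X-100. Reaction started with 300 μM PFR-AMC, run 10 min at room temperature; AMC fluorescence read at ex 380/em 460 nm.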
Sequence of human activated kallikrein enzyme (P03952 391-638 limits assumed): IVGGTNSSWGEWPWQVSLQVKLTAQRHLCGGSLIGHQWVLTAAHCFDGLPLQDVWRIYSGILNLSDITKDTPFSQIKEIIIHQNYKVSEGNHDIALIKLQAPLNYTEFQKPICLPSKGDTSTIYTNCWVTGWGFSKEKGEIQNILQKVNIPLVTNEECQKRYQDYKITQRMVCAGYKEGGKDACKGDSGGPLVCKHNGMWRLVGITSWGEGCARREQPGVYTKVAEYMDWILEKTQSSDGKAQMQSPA
Sequence of human activated kallikrein enzyme (P03952 20-390 partner limits assumed): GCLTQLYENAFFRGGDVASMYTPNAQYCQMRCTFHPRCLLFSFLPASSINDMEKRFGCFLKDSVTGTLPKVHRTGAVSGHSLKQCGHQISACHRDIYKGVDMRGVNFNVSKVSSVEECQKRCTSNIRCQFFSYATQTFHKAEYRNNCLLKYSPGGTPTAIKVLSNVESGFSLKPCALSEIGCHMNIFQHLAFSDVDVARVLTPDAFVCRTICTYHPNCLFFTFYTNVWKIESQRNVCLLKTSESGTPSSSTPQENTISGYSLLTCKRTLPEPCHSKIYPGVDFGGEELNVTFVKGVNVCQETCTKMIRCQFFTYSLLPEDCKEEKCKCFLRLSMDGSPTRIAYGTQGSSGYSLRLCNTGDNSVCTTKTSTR
On to `Cc1cc2c(N)nccc2c(C)c1CNC(=O)c1cnn(Cc2cn3c(Cl)c(Br)ccc3n2)c1` [Example 138, N-((1-amino-5,7-dimethylisoquinolin-6-yl)methyl)-1-((6-bromo-5-chloroimidazo[1,2-a]pyridin-2-yl)methyl)-1H-pyrazole-4-carboxamide], for which the EC50 was less than 1 nM.

In the case of `Cc1cc2c(N)nccc2c(C)c1CNc1cc(NCc2ccc(C(F)(F)n3cccn3)cc2)ncn1` [Example 382, N^4-((1-amino-5,7-dimethylisoquinolin-6-yl)methyl)-N^6-(4-(difluoro(1H-pyrazol-1-yl)methyl)benzyl)pyrimidine-4,6-diamine], the EC50 was 1 to 10 nM.

Take `Cc1cc2c(N)nccc2c(C)c1CNC(=O)c1cnn(Cc2ccc(CC(=O)N3CC4CC4(C(=O)O)C3)cc2)c1` (stereo not drawn) [Example 216, 3-(2-(4-((4-(((1-amino-5,7-dimethylisoquinolin-6-yl)methyl)carbamoyl)-1H-pyrazol-1-yl)methyl)phenyl)acetyl)-3-azabicyclo[3.1.0]hexane-1-carboxylic acid]: the 50% effective concentration (EC50) lay in the range of 10 to 100 nM.

Take `Cc1cc2c(N)nccc2c(C)c1CNC(c1cnn(Cc2ccc(Cn3ccccc3=O)cc2)c1)C(F)(F)F` (stereo not drawn) [Example I-471, 1-(4-((4-(1-(((1-amino-5,7-dimethylisoquinolin-6-yl)methyl)amino)-2,2,2-trifluoroethyl)-1H-pyrazol-1-yl)methyl)benzyl)pyridin-2(1H)-one]: the concentration for a half-maximal effect (EC50) is 10 to 100 nM.

As for `Cc1cc2c(N)nccc2c(C)c1CNC(=O)c1cnn([C@H](C)c2ccccc2)c1` [Example 127, (R)-N-((1-amino-5,7-dimethylisoquinolin-6-yl)methyl)-1-(1-phenylethyl)-1H-pyrazole-4-carboxamide], the EC50 lay within 100 to 1000 nM.

For `Cc1cc2c(N)nccc2c(C)c1CNc1cc(OCc2ccc(Cn3ccccc3=O)cc2)cnn1` [Example 436, 1-(4-(((6-(((1-amino-5,7-dimethylisoquinolin-6-yl)methyl)amino)pyridazin-4-yl)oxy)methyl)benzyl)pyridin-2(1H)-one], the 50% effective concentration (EC50) is less than 1 nM.

For `Cc1cc2c(N)nccc2c(C)c1CNC(=O)c1cnn(Cc2cn3c(C)c(Cl)ccc3n2)c1` [Example 106, N-((1-amino-5,7-dimethylisoquinolin-6-yl)methyl)-1-((6-chloro-5-methylimidazo[1,2-a]pyridin-2-yl)methyl)-1H-pyrazole-4-carboxamide], the EC50 was less than 1 nM.

Consider `Cc1cc2c(N)nccc2c(C)c1CNc1cc(N(C)Cc2cnc3ccccc3c2)ncn1` [Example 316, N^4-((1-amino-5,7-dimethylisoquinolin-6-yl)methyl)-N^6-methyl-N^6-(quinolin-3-ylmethyl)pyrimidine-4,6-diamine], for which the EC50 lay within 10 to 100 nM.

As for `Cc1cc2c(N)nccc2c(C)c1CNc1cc(OCc2cn3nc(C4CC4)cc(CN4CCCC4)c3n2)ncn1` [Example 394, 6-(((6-((6-cyclopropyl-8-(pyrrolidin-1-ylmethyl)imidazo[1,2-b]pyridazin-2-yl)methoxy)pyrimidin-4-yl)amino)methyl)-5,7-dimethylisoquinolin-1-amine], the half-maximal effective concentration (EC50) was less than 1 nM.

`Cc1cc2c(N)nccc2c(C)c1CNc1cc(OCc2ccc(-n3ccccc3=O)cc2)ncn1` [Example 296, 1-(4-(((6-(((1-amino-5,7-dimethylisoquinolin-6-yl)methyl)amino)pyrimidin-4-yl)oxy)methyl)phenyl)pyridin-2(1H)-one]: the EC50 was in the range of 10 to 100 nM.

Consider `Cc1ccc2nc(C(C(=O)O)n3cc(C(=O)NCc4c(C)cc5c(N)nccc5c4C)cn3)cn2c1` (stereo not drawn) [Example 129, 2-(4-(((1-amino-5,7-dimethylisoquinolin-6-yl)methyl)carbamoyl)-1H-pyrazol-1-yl)-2-(6-methylimidazo[1,2-a]pyridin-2-yl)acetic acid], for which the EC50 was 1 to 10 nM.

Turning to `Cc1cc2c(N)nccc2c(C)c1CNC(=O)c1cnn(Cc2ccc(CC(=O)N3CCC3)cc2)c1` [Example 219, N-((1-amino-5,7-dimethylisoquinolin-6-yl)methyl)-1-(4-(2-(azetidin-1-yl)-2-oxoethyl)benzyl)-1H-pyrazole-4-carboxamide], the EC50 is less than 1 nM.

As to `Cc1c(CNC(=O)c2cnn(Cc3cn4cc(C5CC5)ccc4n3)c2)c(C)c2ccnc(N)c2c1C` [Example 191, N-((1-amino-5,7,8-trimethylisoquinolin-6-yl)methyl)-1-((6-cyclopropylimidazo[1,2-a]pyridin-2-yl)methy1)-1H-pyrazole-4-carboxamide], the EC50 was 10 to 100 nM.

In the case of `Cc1cc2c(N)nccc2c(C)c1CNc1cc(NCc2ccc3c(-c4ccccn4)cccc3c2)ncn1` [Example 241, N4-((1-amino-5,7-dimethylisoquinolin-6-yl)methyl)-N6-((5-(pyridin-2-yl)naphthalen-2-yl)methyl)pyrimidine-4,6-diamine], the EC50 lay within 1 to 10 nM.

In the case of `COc1nc2ccccc2cc1Cn1cc(C(=O)NCc2c(C)cc3c(N)nccc3c2C)cn1` [Example 67, N-((1-amino-5,7-dimethylisoquinolin-6-yl)methyl)-1-((2-methoxyquinolin-3-yl)methyl)-1H-pyrazole-4-carboxamide], the half-maximal effective concentration (EC50) is 1 to 10 nM.

Turning to `Cc1cc2c(N)nccc2c(C)c1CNc1cc(NCc2ccc(Cc3ccccn3)cc2)ncn1` [Example 363, N^4-((1-amino-5,7-dimethylisoquinolin-6-yl)methyl)-N^6-(4-(pyridin-2-ylmethyl)benzyl)pyrimidine-4,6-diamine], the concentration giving a half-maximal response (EC50) was less than 1 nM.

For `CCc1cnc2ccc(Cn3cc(C(=O)NCc4c(C)cc5c(N)nccc5c4C)cn3)cc2c1` [Example 124, N-((1-amino-5,7-dimethylisoquinolin-6-yl)methyl)-1-((3-ethylquinolin-6-yl)methyl)-1H-pyrazole-4-carboxamide], the EC50 was less than 1 nM.

Consider `COc1ccc(Cn2cc(C(=O)NCc3c(C)cc4c(N)nccc4c3C)cn2)cc1` [Example 91, N-((1-amino-5,7-dimethylisoquinolin-6-yl)methyl)-1-(4-methoxybenzyl)-1H-pyrazole-4-carboxamide], for which the EC50 lay in the range of 10 to 100 nM.

`Cc1cc2c(N)nccc2c(C)c1CNc1cc(N(C)Cc2ccc3ncccc3c2)ncn1` [Example 308, N^4-((1-amino-5,7-dimethylisoquinolin-6-yl)methyl)-N^6-methyl-N^6-(quinolin-6-ylmethyl)pyrimidine-4,6-diamine]: the EC50 is 10 to 100 nM.

Turning to `Cc1ccc2cnc(Cn3cc(C(=O)NCc4c(C)cc5c(N)nccc5c4C)cn3)cc2c1` [Example 1, N-((1-amino-5,7-dimethylisoquinolin-6-yl)methyl)-1-((6-methylisoquinolin-3-yl)methyl)-1H-pyrazole-4-carboxamide], the EC50 is less than 1 nM.

With `Cc1cc2c(N)nccc2cc1CNc1cc(OCc2ccc(Cn3cccn3)cc2)ncn1` [Example 534, 6-(((6-((4-((1H-pyrazol-1-yl)methyl)benzyl)oxy)pyrimidin-4-yl)amino)methyl)-7-methylisoquinolin-1-amine], the EC50 was in the range of 10 to 100 nM.

`Cc1cc2c(N)nccc2c(C)c1CNC(=O)c1cnn(Cc2ccc3ncccc3c2)c1` [Example 60, N-((1-amino-5,7-dimethylisoquinolin-6-yl)methyl)-1-(quinolin-6-ylmethyl)-1H-pyrazole-4-carboxamide]: the concentration for a half-maximal effect (EC50) is less than 1 nM.

For the compound `Cc1cc2c(N)nccc2c(C)c1CNc1cc(OC(C)c2ccc(Cn3cccn3)cc2)cnn1` (stereo not drawn) [Example 275, 6-(((5-(1-(4-((1H-pyrazol-1-yl)methyl)phenyl)ethoxy)pyridazin-3-yl)amino)methyl)-5,7-dimethylisoquinolin-1-amine], the concentration giving a half-maximal response (EC50) was less than 1 nM.

Consider `Cc1cc2c(N)nccc2c(C)c1CNc1cc(OCc2ccc3nccc(C)c3c2)cnn1` [Example 421, 5,7-dimethyl-6-(((5-((4-methylquinolin-6-yl)methoxy)pyridazin-3-yl)amino)methyl)isoquinolin-1-amine, formic acid], for which the EC50 fell in the range of 1 to 10 nM.

Regarding `Cc1cc2c(N)nccc2c(C)c1CNc1cc(OCc2cn3cc(C(F)(F)F)ccc3n2)cnn1` [Example 424, 5,7-dimethyl-6-(((5-((6-(trifluoromethyl)imidazo[1,2-a]pyridin-2-yl)methoxy)pyridazin-3-yl)amino)methyl)isoquinolin-1-amine], the half-maximal effective concentration (EC50) was less than 1 nM.

Regarding `Cc1cc2c(N)nccc2c(C)c1CNc1cc(OCc2ccc(Cn3cccn3)cc2)ccn1` [Example I-454, 6-(((4-((4-((1H-pyrazol-1-yl)methyl)benzyl)oxy)pyridin-2-yl)amino)methyl)-5,7-dimethylisoquinolin-1-amine], the EC50 is 1 to 10 nM.

As for `CCOC(=O)Nc1nccc2c(C)c(CNC(=O)c3cnn(Cc4cn5cc(C)ccc5n4)c3)c(C)cc12` [Example 9, ethyl (5,7-dimethyl-6-((1-((6-methylimidazo[1,2-a]pyridin-2-yl)methyl)-1H-pyrazole-4-carboxamido)methyl)isoquinolin-1-yl)carbamate], the EC50 was in the range of 1 to 10 nM.

Consider `Cc1cc2c(Nc3cc(OCc4ccc5ncc(C6CC6)cc5c4)ccn3)nccc2c(C)c1CN` [Example 238, 6-(aminomethyl)-N-(4-((3-cyclopropylquinolin-6-yl)methoxy)pyridin-2-yl)-5,7-dimethylisoquinolin-1-amine], for which the EC50 was 100 to 1000 nM.

For `CCc1cccc2nc(Cn3cc(C(=O)NCc4c(C)cc5c(N)nccc5c4C)cn3)cn12` [Example 140, N-((1-amino-5,7-dimethylisoquinolin-6-yl)methyl)-1-((5-ethylimidazo[1,2-a]pyridin-2-yl)methyl)-1H-pyrazole-4-carboxamide], the concentration giving a half-maximal response (EC50) was less than 1 nM.

Staying with this test, now noted: Primary Dose Response Assay: Average EC50, 500 pM activated kallikrein; 300 μM PFR-AMC; 30 min preincubation; 10 min room temperature; pH 7.5.
Compound `Cc1cc(CNc2cc(NCc3c(C)cc4c(N)nccc4c3C)ncn2)cc(C)c1CC(=O)N1CC2CC2C1` (stereo not drawn) [Example 359, 2-(4-(((6-(((1-amino-5,7-dimethylisoquinolin-6-yl)methyl)amino)pyrimidin-4-yl)amino)methyl)-2,6-dimethylphenyl)-1-(3-azabicyclo[3.1.0]hexan-3-yl)ethan-1-one] displayed an EC50 of less than 1 nM.

Source of the values: US20260374754A1, “N-((ISOQUINOLIN-6-YL)METHYL)-1H-PYRAZOLE-4-CARBOXAMIDE DERIVATIVES AS PLASMA KALLIKREIN INHIBITORS FOR THE TREATMENT OF HEREDITARY ANGIODEMA” (Takeda Pharmaceutical Company Limited, priority 2022, published 2026).
